We go through 12 compounds from ChEMBL document CHEMBL1201862, “PubChem BioAssay data set” (2004).

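All cell lines were grown in 96-well plates and treated with compound for 48 hours. GI50 is the concentration that inhibits growth by half.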 Activity calls are given as the source filed them. Rule as the data show it: active = GI50 up to about 1.1 µM and inactive = higher.

What all share (assay): NCI anticancer screen, dose series, 48 h
Assay [1] concerns HOP-92.
The test system of assay [2] is SF-539.
In assay [3] the test system is COLO 205.
Assay [4] relates to SK-OV-3.
In assay [5] the test system is Malme-3M.
Assay [6] concerns OVCAR-3.
Assay [7] concerns SK-MEL-28.
Assay [8] concerns ACHN.
In assay [9] the test system is HCT-15.
For assay [10], the system named is NCI-H23.
In assay [11] the test system is SK-MEL-2.
Assay [12] concerns SF-268.
Assay [13] has as its system TK-10.
Assay [14] relates to RPMI-8226.
For assay [15], the system named is NCI-H522.
Assay [16] relates to HCC 2998.
In assay [17] the test system is HT-29.
The test system of assay [18] is UACC-62.
Assay [19] deals with DU-145.

As to `Cn1cc2ccccc2c1-c1nc(F)nc(Oc2ccc3c(c2)CC[C@@H]2C3CC[C@@]3(C)C2CC[C@@H]3O)n1` (stereo partly drawn), the GI50 in [1] was 7.78 µM (inactive); in assay [2], 12.8 µM (inactive); in [3], 21.8 µM (inactive); in assay [4] it was 19.3 µM (inactive); in assay [5] it was 15.5 µM (inactive); in assay [6] it was 9.33 µM (inactive). Besides, the GI50 in assay [7] is 10.4 µM (inactive); in assay [8], 17.7 µM (inactive); in [9], 6.18 µM; in assay [10] it was 10.3 µM (inactive); in assay [11], 4.2 µM (inactive); in assay [12] it was 9.53 µM (inactive). Further, the GI50 in assay [13] is 13.7 µM (inactive); in assay [14] it was 5.94 µM (inactive); in [15] it was 3.4 µM (inactive); in [16] it was 18.3 µM (inactive); in assay [17], 18.7 µM (inactive); in assay [18] it was 17.1 µM (inactive).

With `O=C(/C=C/c1ccccc1)CSc1nc[nH]n1`, the GI50 in assay [2] was > 100 µM (inactive); in assay [3] it was > 100 µM (inactive); in assay [4] it was > 100 µM (inactive); in [5], > 100 µM (inactive); in [6], > 100 µM (inactive); in assay [7], 56.9 µM (inactive). Further, the GI50 was > 100 µM (inactive) in assay [8]; > 100 µM (inactive) in assay [19]; 41.3 µM in assay [9]; > 100 µM (inactive) in [10]; > 100 µM (inactive) in assay [11]; > 100 µM (inactive) in assay [12]. The GI50 was > 100 µM (inactive) in assay [13]; 35.1 µM (inactive) in [14]; 30.5 µM (inactive) in assay [15]; > 100 µM (inactive) in [16]; 44.4 µM (inactive) in [17]; > 100 µM (inactive) in assay [18].

With `O=C1CCC2CCOc3ccc(O)c1c32` (stereo not drawn), the GI50 in [1], in assay [2], in assay [3], in assay [4], in [5] and in assay [6] was > 100 µM (inactive) each time. Moreover, the GI50 in assay [7] was > 100 µM (inactive); in assay [8] it was > 100 µM (inactive); in assay [9], above 100 µM; in assay [10] it was > 100 µM (inactive); in assay [11], > 100 µM (inactive); in [12] it was > 100 µM (inactive). Moreover, the GI50 in assay [13], in [14], in assay [15], in assay [16], in assay [17] and in assay [18] was > 100 µM (inactive) throughout.

Take `CCCCOCn1c(=O)[nH]c(=O)c2ccccc21`: the GI50 in assay [1], in assay [2], in assay [3], in assay [4], in assay [6] and in assay [7] was > 100 µM (inactive) in each case. Besides, the GI50 in assay [8] is 32.9 µM (inactive); in [19] it was > 100 µM (inactive); in assay [9], above 100 µM; in [11], 91.8 µM (inactive); in assay [13] it was > 100 µM (inactive); in assay [17] it was 40.3 µM (inactive). Also, the GI50 in assay [18] was > 100 µM (inactive).

With `Cc1ccc(N2C3=C(CC4=C2CC(C)(C)CC4=O)C(=O)CC(C)(C)C3)cc1`, the GI50 in assay [2], in assay [3], in assay [4], in assay [5], in [6] and in assay [7] was > 100 µM (inactive) each time. The GI50 in [8] is > 100 µM (inactive); in assay [19], > 100 µM (inactive); in [9], above 100 µM; in [10], > 100 µM (inactive); in [12], > 100 µM (inactive); in [13], > 100 µM (inactive). The GI50 in assay [14], in assay [16], in assay [17] and in [18] was > 100 µM (inactive) each time.

As to `CCN(CC)C(=S)N/N=C(/c1ccccc1)c1ccccn1`, the GI50 was 1.65 µM (inactive) in assay [1]; 0.343 µM (active) in [2]; 0.0275 µM (active) in assay [3]; 0.673 µM (active) in [4]; 0.929 µM (active) in [5]; 0.0288 µM (active) in assay [6]. The GI50 in assay [7] was 0.767 µM (active); in assay [8] it was 0.264 µM (active); in [19] it was 0.402 µM (active); in assay [9], 0.126 µM; in assay [10], 0.267 µM (active); in assay [11], 0.711 µM (active). In addition, the GI50 in assay [12] is 0.0256 µM (active); in assay [13], 0.439 µM (active); in assay [14] it was 0.11 µM (active); in assay [15] it was 0.0984 µM (active); in [16], 2.15 µM (inactive); in assay [17] it was < 0.0246 µM (active).

Consider `COc1cccc2c(=O)c3c(O)c4cc(N(C)C)ccc4c(OC(C)=O)c3oc12`, for which the GI50 in assay [1] is 17.4 µM (inactive); in assay [2] it was 17.2 µM (inactive); in [3] it was 4.1 µM (inactive); in assay [4] it was 32.4 µM (inactive); in assay [5] it was 2.56 µM (inactive); in assay [6], 4 µM (inactive). Moreover, the GI50 was 10.5 µM (inactive) in assay [7]; 15.2 µM (inactive) in assay [8]; 17.8 µM (inactive) in [19]; 12.7 µM in assay [9]; 17.2 µM (inactive) in [10]; 16.3 µM (inactive) in assay [11]. Further, the GI50 is 17 µM (inactive) in assay [12]; 15.3 µM (inactive) in [13]; 13.2 µM (inactive) in assay [14]; 15 µM (inactive) in assay [16]; 14.1 µM (inactive) in [17]; 12.9 µM (inactive) in assay [18].

As for `COc1cc(Br)cc2cc(-c3cn4c(n3)sc3ccccc34)c(=O)oc12`, the GI50 in assay [1] was 14.7 µM (inactive); in assay [2], 30.9 µM (inactive); in [3], 38.7 µM (inactive); in assay [4], 30.1 µM (inactive); in assay [6], 20 µM (inactive); in assay [8], 32 µM (inactive). In addition, the GI50 is 17.7 µM (inactive) in assay [19]; 23.6 µM in assay [9]; 21.2 µM (inactive) in assay [10]; 22.3 µM (inactive) in [11]; 20 µM (inactive) in assay [12]; 45.4 µM (inactive) in assay [13]. Besides, the GI50 was 21.6 µM (inactive) in assay [14], 14.5 µM (inactive) in [15], 29.5 µM (inactive) in assay [17] and 22.6 µM (inactive) in [18].

Regarding `O=S(=O)(O)c1cc(/N=N/c2c(O)ccc3ccccc23)c2c(S(=O)(=O)O)cccc2c1`, the GI50 in [1], in assay [2], in assay [3], in [4], in assay [5] and in assay [6] was > 100 µM (inactive) throughout. In addition, the GI50 in assay [7] is > 100 µM (inactive); in assay [8], > 100 µM (inactive); in assay [9], above 100 µM; in assay [10] it was > 100 µM (inactive); in assay [11], > 100 µM (inactive); in assay [12], > 100 µM (inactive). Besides, the GI50 in [13], in assay [14], in [15], in [16], in assay [17] and in assay [18] was > 100 µM (inactive) throughout.

Turning to `Nc1ccc2c(c1)Nc1c3ccccc3nc3cccc-2c13`, the GI50 was 1.6 µM (inactive) in assay [1]; 1.66 µM (inactive) in assay [2]; 1.34 µM (inactive) in assay [3]; 1.61 µM (inactive) in assay [4]; 1.85 µM (inactive) in [5]; 1.72 µM (inactive) in [6]. Further, the GI50 in assay [7] was 1.99 µM (inactive); in assay [8] it was 1.43 µM (inactive); in [19], 1.59 µM (inactive); in [10] it was 1.48 µM (inactive); in [11], 1.73 µM (inactive); in assay [12], 1.73 µM (inactive). For the same compound, the GI50 in [13] was 2.13 µM (inactive); in assay [14], 1.84 µM (inactive); in assay [15], 1.55 µM (inactive); in assay [16], 1.2 µM (inactive); in assay [17], 1.18 µM (inactive); in assay [18], 1.82 µM (inactive).

Regarding `CCN1/C(=C/C(C)=C/c2sc3ccccc3[n+]2CC)Sc2ccccc21`, the GI50 was < 0.01 µM (active) in [1]; 0.265 µM (active) in assay [2]; 0.142 µM (active) in assay [3]; 0.0769 µM (active) in assay [4]; 0.37 µM (active) in assay [5]; 0.172 µM (active) in assay [6]. Moreover, the GI50 in assay [7] is 0.0285 µM (active); in [8], 0.295 µM (active); in assay [9] it was 0.395 µM; in assay [10], 0.0415 µM (active); in [11] it was 0.201 µM (active); in assay [12], 0.447 µM (active). The GI50 is 0.324 µM (active) in assay [13]; 0.0223 µM (active) in assay [14]; 0.0574 µM (active) in assay [15]; 0.255 µM (active) in assay [16]; 0.307 µM (active) in assay [17]; 0.0927 µM (active) in assay [18].

With `OC[C@H]1O[C@@H](Oc2cc(O)cc(/C=C/c3ccc(O)cc3)c2)[C@H](O)[C@@H](O)[C@@H]1O` [PICEID], the GI50 in assay [1], in [2], in assay [4], in assay [6], in assay [7] and in assay [8] was > 100 µM (inactive) each time. Moreover, the GI50 is > 100 µM (inactive) in assay [19]; above 100 µM in [9]; > 100 µM (inactive) in assay [11]; > 100 µM (inactive) in assay [13]; > 100 µM (inactive) in assay [14]; > 100 µM (inactive) in assay [15]. Further, the GI50 in assay [17] and in assay [18] was > 100 µM (inactive) each time.
